The record followed here is US5208246A, “Tetralones with pharmacological activity” (J. Uriach & Cia., priority 1991, dated 1993).

The IC50 is the point on the concentration scale where inhibition reaches its midpoint. Higher therefore signals weaker potency. As a reminder, the EC50 is the midpoint of the concentration-response curve. A high value points to weaker potency.

Each structure is given as a SMILES string. Some results are limits rather than exact numbers.

Test [1] relates to portal vein isolated from rat. Nature of the test: Test 1: Inhibition of the contraction induced by noradrenaline in portal vein isolated from rat. Conditions: 0.5 h. The protocol:
Test 1: Inhibition of the contraction induced by noradrenaline in portal vein isolated from rat.
Portal vein was extracted from adult male rats (between 200 and 250 g of body weight), which had been stunned by a blow in the head. Portal vein was installed into an isolated organ bath (Letica) containing a physiological saline solution (Hamilton et al., Br. J. Pharmacol., 1986, 103-111) at 37° C. and a gas bubbler (5% CO2 and 95% O2). Contractions were induced by noradrenaline (3 μM) and were reverted after thoroughly washing with physiological saline solution. Portal vein contraction was measured with an isometric force transducer and with an initial tension of 1 g. After two contractions with noradrenaline, performed in order to measure the tissue's basal response, the tested compounds were incubated for 30 minutes and a new contraction was induced.

Another test has as its system hypertense rats. Nature of the test: Test 2: Lowering of the arterial pressure in concious hypertense rats. The class given is in vivo, rat. The settings on record: 1 mg/Kg p.o.; spontaneously hypertense rats, conscious; 3 animals; arterial pressure every 60 minutes during 4 hours. The protocol: Test 2: Lowering of the arterial pressure in concious hypertense rats.
Spontaneously hypertense rats (between 200 and 250 g of body weight) of more than 8 weeks of age have been used. Diastolic and systolic arterial pressure of the rat was measured at the caudal artery using a special sphygnomanometer (Letica 5007 and 5007/4) attached to the animal's tail. To ensure rapid and reliable data, animals were placed in a heating plate at 37° C., with the aim to produce a vasodilation that ensured a better fixation of the rat tail to the transfer chamber. During the experiment, rats are conscious and fixed to a clamp. The tested products were administered orally. Arterial pressure was measured every 60 minutes during 4 hours and 10 minutes before the administration of the tested compound. The decrease of the arterial pressure was calculated for each compound at a dose of 1 mg/Kg, using 3 animals.

The test system of test [2] is trachea isolated from guinea pig. The test can be described thus: Test 3: Direct relaxation of the trachea isolated from guinea pig. Conditions: Cavia porcellus; 50% of the maximum relaxation; maximum = relaxation by isoproterenol at 1×10^-6 M; cumulative addition; basal tension 0.5 g; 37° C. How it is done:
Test 3-Direct relaxation of the trachea isolated from guinea pig.
This test was performed according to the experimental model described by Emmerson, J. and Mackay, D. (J. Pharm. Pharmacol., 1979, 31, 798). Tracheas were extracted from male guinea pigs of 400 g of body weight, which had been stunned by a blow in the head. Then, tracheas were cut in zigzag and placed into an isolated organ bath (Letica) containing Krebs-Henseleit solution at 37° C. and were bubbled with carbogen (95% O2 and 5% CO2). The relaxation of the trachea was measured using an isometric force transducer. The basal tension was 0.5 g.

Compound `CC1(C)C(=O)c2cc(Cl)c(Cl)cc2[C@@H](n2ccccc2=O)[C@@H]1O` (relative stereo) [Compound 57, Trans 6,7-dichloro-4-(1,2-dihydro-2-oxo-1-pyridyl)-2,2-dimethyl-3-hydroxy-1,2,3,4-tetrahydronaphthalen-1-one] came in with an IC50 in test [1] of 1500 nM. Also, in the test with hypertense rats, the “Pressure Decrease” value was found to be 52 mm Hg. Moreover, the EC50 in test [2] came to 500 nM.

As to `CC1(C)C(=O)c2ccc(C(F)(F)F)cc2[C@@H](n2ccccc2=O)[C@@H]1O` (relative stereo) [Compound 41, Trans 4-(1,2-dihydro-2-oxo-1-pyridyl)-2,2-dimethyl-3-hydroxy-1,2,3,4-tetrahydro-6-trifluoromethylnaphthalen-1-one], the “Pressure Decrease” value in the test on hypertense rats is 52.6 mm Hg. In test [2], this compound returned an EC50 of 1000 nM.

As for `CC1(C)C=C(n2ccccc2=O)c2cc(C#N)ccc2C1=O` [Compound 26, 1,2-dihydro-4-(1,2-dihydro-2-oxo-1-pyridyl)-2,2-dimethyl-1-oxonaphthalen-6-carbonitrile], the IC50 in test [1] came out at 600 nM. The “Pressure Decrease” value in the test with hypertense rats turned out to be 96.5 mm Hg. Besides, the EC50 in test [2] worked out at 100 nM.

Compound `CC1(C)C(=O)c2ccc(Br)cc2[C@@H](N2Cc3ccccc3C2=O)[C@@H]1O` (relative stereo) [Compound 22, Trans 6-bromo-4-(2,3-dihydro-1-oxo-1H-isoindol-2-yl)-2,2-dimethyl-3-hydroxy-1,2,3,4-tetrahydronaphthalen-1-one] yielded an IC50 in test [1] of 3100 nM. Moreover, the “Pressure Decrease” value with hypertense rats was determined as 24 mm Hg. In test [2], the EC50 was more than 50000 nM.

Regarding `COc1ccc2c(c1)C(n1ccccc1=O)=CC(C)(C)C2=O` [Compound 6, 1,2-dihydro-4-(1,2-dihydro-2-oxo-1-pyridyl)-2,2-dimethyl-6-methoxynaphthalen-1-one], the IC50 in test [1] stood at 21000 nM. Further, the “Pressure Decrease” value in the test with hypertense rats came out at 42.5 mm Hg.

`CC1(C)C=C(n2ccccc2=O)c2ccc(Br)cc2C1=O` [Compound 52, 7-bromo-1,2-dihydro-4-(1,2-dihydro-2-oxo-1-pyridyl)-2,2-dimethylnaphthalen-1-one]: the IC50 in test [1] turned out to be 2700 nM. In the test on hypertense rats, the “Pressure Decrease” value is listed as 37 mm Hg.

Take `CC(=O)O[C@H]1[C@H](n2ccccc2=O)c2cc(C#N)ccc2C(=O)C1(C)C` (relative stereo) [Compound 24, Trans 3-acetoxy-4-(1,2-dihydro-2-oxo-1-pyridyl)-2,2-dimethyl-1-oxo-1,2,3,4-tetrahydronaphthalen-6-carbonitrile]: the IC50 in test [1] worked out at 23000 nM. For the same compound, the “Pressure Decrease” value in the test on hypertense rats is on record as 64.7 mm Hg. This compound also displayed an EC50 in test [2] of 2200 nM.

As for `CC1(C)C=C(n2ccccc2=O)c2cc(Br)ccc2C1=O` [Compound 16, 6-bromo-1,2-dihydro-4-(1,2-dihydro-2-oxo-1-pyridyl)-2,2-dimethylnaphthalen-1-one], in test [1], the IC50 turned out to be 500 nM. Besides, the EC50 in test [2] stood at 200 nM.

As to `CC1(C)C=C(n2ccccc2=O)c2cc(Cl)ccc2C1=O` [Compound 11, 6-chloro-1,2-dihydro-4-(1,2-dihydro-2-oxo-1-pyridyl)-2,2-dimethylnaphthalen-1-one], in test [1], the midpoint of inhibition, the IC50, lay at 1400 nM. Also, the “Pressure Decrease” value in the test with hypertense rats is on record as 53 mm Hg. This compound gave an EC50 in test [2] of 1100 nM.

Compound `CC1(C)C(=O)c2ccc(Br)cc2[C@@H](n2ccccc2=O)[C@@H]1O` (relative stereo) [Compound 14, Trans 6-bromo-4-(1,2-dihydro-2-oxo-1-pyridyl)-2,2-dimethyl-3-hydroxy-1,2,3,4-tetrahydronaphthalen-1-one] had an IC50 in test [1] of 28000 nM. Besides, the “Pressure Decrease” value with hypertense rats is 23 mm Hg. The compound further gave an EC50 in test [2] of more than 10000 nM.

Compound `CC1(C)C=C(n2ccccc2=O)c2cc(Cl)c(Cl)cc2C1=O` [Compound 58] gave an IC50 in test [1] of 700 nM. Moreover, the “Pressure Decrease” value in the test with hypertense rats is 58 mm Hg. The same compound gave an EC50 in test [2] of 50 nM.

In test [1], `CC1(C)C(=O)c2ccc(Br)cc2[C@@H](N2CCCC2=O)[C@@H]1O` (relative stereo) [Compound 18, Trans 6-bromo-2,2-dimethyl-3-hydroxy-4-(2-oxo-1-pyrrolidinyl)-1,2,3,4-tetrahydronaphthalen-1-one] registered an IC50 of more than 10000 nM. For the same compound, the “Pressure Decrease” value in the test with hypertense rats stood at 39 mm Hg. Further, in test [2], a half-maximal response (EC50) required 78000 nM.

`CC1(C)C=C(N2CCCC2=O)c2cc(C#N)ccc2C1=O` [Compound 30]: the IC50 in test [1] was 800 nM. Moreover, the “Pressure Decrease” value with hypertense rats was 103 mm Hg. In test [2], the midpoint of the response, the EC50, lay at 900 nM.

`CC(=O)N(C)c1ccc2c(c1)C(n1ccccc1=O)=CC(C)(C)C2=O` [Compound 38, 1,2-dihydro-4-(1,2-dihydro-2-oxo-1-pyridyl)-2,2-dimethyl-6N-methylacetamidonaphthalen-1-one] gave an IC50 in test [1] of 4300 nM. Moreover, the “Pressure Decrease” value in the test on hypertense rats worked out at 49.3 mm Hg. In addition, the response in test [2] was half-maximal at 1500 nM (EC50).

On to `CC1(C)C(=O)c2ccc(C#N)cc2[C@@H](n2ccccc2=O)[C@@H]1O` (relative stereo) [Compound 23, Trans 4(1,2-dihydro-2-oxo-1-pyridyl)-2,2-dimethyl-3-hydroxy-1-oxo-1,2,3,4-tetrahydronaphthalen-6-carbonitrile], for which, in test [1], the IC50 was 14000 nM. Also, the “Pressure Decrease” value with hypertense rats is listed as 84 mm Hg. Further, the EC50 in test [2] amounted to 99000 nM.

`CC1(C)C(=O)c2ccc(S(=O)(=O)c3ccccc3)cc2[C@@H](n2ccccc2=O)[C@@H]1O` (relative stereo) [Compound 60, Trans 4-(1,2-dihydro-2-oxo-1-pyridyl)-2,2-dimethyl-3-hydroxy-6-phenylsulphonyl-1,2,3,4-tetrahydronaphthalen-1-one] showed a half-inhibitory concentration (IC50) in test [1] of 300 nM. In the test on hypertense rats, the “Pressure Decrease” value turned out to be 32.5 mm Hg.

In test [1], `CC1(C)C=C(N2CCCC2=O)c2cc(Br)ccc2C1=O` [Compound 21, 6-bromo-1,2-dihydro-2,2-dimethyl-4-(2-oxo-1-pyrrolidinyl)naphthalen-1-one] showed an IC50 of 10000 nM. Further, the “Pressure Decrease” value in the test with hypertense rats was 60.5 mm Hg. In addition, the EC50 in test [2] stood at 19000 nM.

As for `CC(=O)N(C)c1ccc2c(c1)C(N1CCCC1=O)=CC(C)(C)C2=O` [Compound 40, 1,2-dihydro-2,2-dimethyl-6-N-methylacetamido-4-(2-oxo-1-pyrrolidinyl)naphthalen-1-one], inhibition in test [1] was half-maximal at 17000 nM (IC50). Also, the “Pressure Decrease” value in the test on hypertense rats was found to be 23 mm Hg. In test [2], this compound came in with an EC50 of 2500 nM.

On to `CC(=O)N(C)c1ccc2c(c1)[C@@H](n1ccccc1=O)[C@H](O)C(C)(C)C2=O` (relative stereo) [Compound 36, Trans 4-(1,2-dihydro-2-oxo-1-pyridyl)-2,2-dimethyl-3-hydroxy-6-N-methylacetamide-1,2,3,4-tetrahydronaphthalen-1-one], for which, in test [1], half-maximal inhibition (IC50) required 33000 nM. Also, the “Pressure Decrease” value in the test on hypertense rats is 94 mm Hg. For the same compound, in test [2], the EC50 was more than 100000 nM.

Consider `CC1(C)C=C(n2ccccc2=O)c2cc(C#C[Si](C)(C)C)ccc2C1=O` [Compound 49, 1,2-dihydro-4-(1,2-dihydro-2-oxo-1-pyridyl)-2,2-dimethyl-6-trimethylsilylethynylnaphthalen-1-one], for which the IC50 in test [1] amounted to 460 nM. In addition, in the test on hypertense rats, the “Pressure Decrease” value came out at 91.5 mm Hg. In test [2], this compound displayed an EC50 of 4800 nM.

In test [1], `CC1(C)C=C(N2CCCC2=O)c2cc(Cl)ccc2C1=O` [Compound 13, 6-chloro-1,2-dihydro-2,2-dimethyl-4-(2-oxo-1-pyrrolidinyl)naphthalen-1-one] returned an IC50 of more than 10000 nM. In the test with hypertense rats, the “Pressure Decrease” value turned out to be 32 mm Hg. The compound further came in with an EC50 in test [2] of more than 10000 nM.

In test [1], `CC1(C)C=C(n2ccccc2=O)c2ccc(C#N)cc2C1=O` [Compound 55, 1,2-dihydro-4-(1,2dihydro-2-oxo-1-pyridyl)-2,2-dimethyl-1-oxonaphthalen-7carbonitrile] registered an IC50 of more than 10000 nM. Also, in the test on hypertense rats, the “Pressure Decrease” value came out at 41 mm Hg.

Compound `CC1(C)C=C(n2ccccc2=O)c2cc(C(F)(F)F)ccc2C1=O` [Compound 42, 1,2-dihydro-4-(1,2-dihydro-2-oxo-1-pyridyl)-2,2-dimethyl-6-trifluoromethylnaphthalen-1-one] yielded an IC50 in test [1] of 350 nM. In addition, the “Pressure Decrease” value in the test with hypertense rats came out at 103 mm Hg. In addition, it took 31000 nM to reach a half-maximal effect in test [2] (EC50).

With `C#Cc1ccc2c(c1)C(n1ccccc1=O)=CC(C)(C)C2=O` [Compound 50, 1,2dihydro-4-(1,2-dihydro-2-oxo-1-pyridyl)-2,2-dimethyl-6-ethynylnaphthalen-1-one], in test [1], the IC50 is 980 nM. Moreover, the “Pressure Decrease” value in the test with hypertense rats is recorded as 112 mm Hg. In addition, the EC50 in test [2] amounted to 250 nM.
